Data: article PMC7013301 (Evidence-based Complementary and Alternative Medicine : eCAM, 2020)
Like-named read-outs stand apart in the source and are kept apart here. No end group written: not given here.

Experiments:
C57BL/6 mice = test: CRF-induced delayed gastric emptying of solid meal in mice; assay type: in vivo; details: CRF ICV 0.3 and 1.0 μg/mouse, vs vehicle
Experimental: Seven-week-old male C57BL/6 mice (weighing 20–27 g) were purchased from Charles River Laboratories (Tokyo, Japan). Five mice were housed in a plastic cage (230 × 310 × 155 mm) with bedding materials and acclimated for a week in a controlled environment (20–26°C, 30–70% humidity) under a 12-hour light/dark cycle with free access to standard chow and water. This study was approved by and conducted according to the guidelines of the experimental animal ethics committees of Tsumura & Co. (Tokyo, Japan; Permit No. 14-094-1).
BGH was manufactured by Tsumura & Co., complying with the quality standards authorized in the Japanese Pharmacopoeia, which was published under the authority of the Japanese Ministry of Health, Labour and Welfare. […]
Solid gastric emptying was evaluated using a test meal containing 20 g of ground meal and 40.61 mL of distilled water. […] The gastric emptying of solid meal was calculated using the equation below: […]

human CRF2 receptor = target: T1, human CRF2 receptor (Homo sapiens, UniProt Q13324); test: Antagonistic activity against CRF2 receptor, CRF-induced cAMP production (HTRF) in HEK-293 cells; assay type: cell-based
T1 construct: host or cells: HEK-293
T1 sequence (Q13324 1-411): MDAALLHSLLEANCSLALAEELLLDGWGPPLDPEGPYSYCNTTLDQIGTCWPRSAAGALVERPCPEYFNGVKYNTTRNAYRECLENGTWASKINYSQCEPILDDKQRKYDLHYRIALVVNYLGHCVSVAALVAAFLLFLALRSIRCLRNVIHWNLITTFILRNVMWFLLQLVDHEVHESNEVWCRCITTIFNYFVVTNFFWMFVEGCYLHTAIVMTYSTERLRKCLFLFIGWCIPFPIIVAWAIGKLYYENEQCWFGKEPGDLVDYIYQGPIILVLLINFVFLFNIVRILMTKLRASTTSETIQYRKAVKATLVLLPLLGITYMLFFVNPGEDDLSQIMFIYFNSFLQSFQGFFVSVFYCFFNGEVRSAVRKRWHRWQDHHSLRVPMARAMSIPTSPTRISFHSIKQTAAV
Experimental: (§1) Assays were performed at Eurofins Discovery (MO, USA). Briefly, evaluation of the inhibitory activities against human recombinant acetylcholinesterase (AChE) expressed in HEK-293 cells was performed by preincubation with test compound and/or vehicle with 41ng/ml of enzyme for 15 minutes at 25°C in phosphate buffer pH 7.4. After 20 minute incubation with 0.7 mM acetylthiocholine iodide and 0.5 mM 5,5-dithiobis-2-nitrobenzoic acid, the spectrophotometric absorbance was read at 405 nm (Catalog No. 104010). Evaluation of the antagonistic activities against human CRF2 receptor transfected in HEK-293 cells was performed by measuring the effects of the test compounds on cAMP production induced by 100 nM human CRF incubated for 30 minutes at room temperature via the HTRF detection method (Catalog No. 2086). Evaluation of the antagonistic activities against human dopamine D2, D3, and neuropeptide Y (NPY) Y2 receptors expressed in CHO-K1 cells, CHO-K1, and KAN-TS cells, respectively, was performed by preincubation of the test compounds and/or vehicle with the membrane proteins (0.1, 0.04, 0.04 mg/ml, respectively) and GDP (10, 1, 0.001 mM) in 20 mM HEPES, pH 7.4, 100 mM NaCl, 10 mM MgCl2, 1 mM DTT, and 1 mM EDTA for 20 minutes at 25°C, and SPA beads are then added for another 60 minutes at 30°C. The reaction was initiated by 0.3 nM [^35S]GTPγS for an additional incubation period (15, 30, 30 minute). Inhibition on increase of [^35S]GTPS binding response induced by dopamine (10, 0.03 mM) or 3 nM human NPY was assessed as receptor antagonist activities of test compounds (Catalog No. 310200, 310400, 332520). Evaluation of the antagonistic activities of shogaol and gingerol against human […] NPY Y2 receptor expressed in RBL cells was performed by measuring the effects of the test compounds on calcium flux induced by 15 nM human NPY (Catalog No. 4287). A concentration-response curve was generated to calculate IC50 values.

[1] = target: T2, human recombinant acetylcholinesterase (AChE) (Homo sapiens, UniProt P22303); test: Inhibition of recombinant acetylcholinesterase, spectrophotometric (acetylthiocholine/DTNB); assay type: biochemical; details: pH 7.4, 25°C
T2 construct: purchased Eurofins Discovery 104010; host or cells: HEK-293
T2 sequence (P22303 32-614): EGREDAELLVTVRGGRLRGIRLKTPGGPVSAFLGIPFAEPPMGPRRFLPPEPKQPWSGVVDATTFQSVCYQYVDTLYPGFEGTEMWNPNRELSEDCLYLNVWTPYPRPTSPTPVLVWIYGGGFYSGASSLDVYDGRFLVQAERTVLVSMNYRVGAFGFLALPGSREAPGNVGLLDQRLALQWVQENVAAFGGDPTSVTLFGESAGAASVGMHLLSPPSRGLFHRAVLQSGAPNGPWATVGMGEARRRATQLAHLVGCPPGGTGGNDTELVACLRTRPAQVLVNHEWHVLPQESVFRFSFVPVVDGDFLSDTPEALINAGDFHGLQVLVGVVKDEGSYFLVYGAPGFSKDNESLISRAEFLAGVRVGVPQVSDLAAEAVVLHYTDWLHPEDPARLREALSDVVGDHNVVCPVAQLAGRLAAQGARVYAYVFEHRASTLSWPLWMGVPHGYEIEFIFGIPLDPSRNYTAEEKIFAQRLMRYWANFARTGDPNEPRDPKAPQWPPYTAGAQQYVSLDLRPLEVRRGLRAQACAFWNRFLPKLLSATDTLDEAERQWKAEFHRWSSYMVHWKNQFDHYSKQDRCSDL
Experimental: as §1

[2] = target: T3, human dopamine D2 receptor (Homo sapiens, UniProt P14416); test: Antagonistic activity against dopamine D2 receptor, [35S]GTPγS binding, CHO-K1 membranes; assay type: biochemical
T3 construct: host or cells: CHO-K1 (membranes)
T3 sequence (P14416 whole entry): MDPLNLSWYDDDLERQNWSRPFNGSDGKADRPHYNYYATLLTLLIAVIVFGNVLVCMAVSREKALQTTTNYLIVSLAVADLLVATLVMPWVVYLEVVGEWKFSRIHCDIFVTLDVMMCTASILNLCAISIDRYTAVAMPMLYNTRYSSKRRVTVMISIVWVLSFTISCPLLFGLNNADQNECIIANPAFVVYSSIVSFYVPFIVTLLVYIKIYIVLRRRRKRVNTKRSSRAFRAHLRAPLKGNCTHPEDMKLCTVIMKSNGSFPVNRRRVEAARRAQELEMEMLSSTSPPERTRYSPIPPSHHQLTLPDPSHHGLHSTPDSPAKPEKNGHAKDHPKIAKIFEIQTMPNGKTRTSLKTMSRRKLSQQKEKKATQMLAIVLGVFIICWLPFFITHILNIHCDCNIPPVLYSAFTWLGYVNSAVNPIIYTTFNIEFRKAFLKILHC
Experimental: as §1

[3] = target: T4, human dopamine D3 receptor (Homo sapiens, UniProt P35462); test: Antagonistic activity against dopamine D3 receptor, [35S]GTPγS binding, CHO-K1 membranes; assay type: biochemical
T4 construct: host or cells: CHO-K1 (membranes)
T4 sequence (P35462 whole entry): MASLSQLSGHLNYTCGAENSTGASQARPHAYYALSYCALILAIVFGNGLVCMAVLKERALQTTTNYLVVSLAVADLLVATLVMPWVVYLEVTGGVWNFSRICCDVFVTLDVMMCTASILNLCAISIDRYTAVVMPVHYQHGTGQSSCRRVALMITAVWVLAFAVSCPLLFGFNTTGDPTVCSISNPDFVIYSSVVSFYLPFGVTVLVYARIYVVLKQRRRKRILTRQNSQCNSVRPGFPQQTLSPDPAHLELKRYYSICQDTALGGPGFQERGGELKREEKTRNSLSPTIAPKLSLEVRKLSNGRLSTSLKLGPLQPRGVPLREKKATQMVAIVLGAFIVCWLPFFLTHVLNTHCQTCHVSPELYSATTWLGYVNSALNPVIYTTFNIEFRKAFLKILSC
Experimental: as §1

human NPY Y2 receptor = target: T5, human NPY Y2 receptor (Homo sapiens, UniProt P49146); test: Antagonistic activity of shogaol and gingerol against NPY Y2 receptor, calcium flux in RBL cells; assay type: cell-based; details: calcium flux induced by 15 nM human NPY
T5 construct: host or cells: RBL
T5 sequence (P49146 1-381): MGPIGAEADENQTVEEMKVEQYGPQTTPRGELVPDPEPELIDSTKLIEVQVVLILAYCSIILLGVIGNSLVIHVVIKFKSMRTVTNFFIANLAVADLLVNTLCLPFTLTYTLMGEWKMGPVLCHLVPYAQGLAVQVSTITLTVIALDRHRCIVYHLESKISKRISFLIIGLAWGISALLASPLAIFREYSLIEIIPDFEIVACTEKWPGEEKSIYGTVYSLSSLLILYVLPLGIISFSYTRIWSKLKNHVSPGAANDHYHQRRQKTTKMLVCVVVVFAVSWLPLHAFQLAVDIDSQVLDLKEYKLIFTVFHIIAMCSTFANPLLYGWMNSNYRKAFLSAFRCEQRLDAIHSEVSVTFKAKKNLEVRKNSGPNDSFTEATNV
Experimental: as §1

[4] = target: T6, human neuropeptide Y (NPY) Y2 receptor (Homo sapiens, UniProt P49146); test: Antagonistic activity against NPY Y2 receptor, [35S]GTPγS binding, KAN-TS membranes; assay type: biochemical
T6 construct: host or cells: KAN-TS (membranes)
T6 sequence (P49146 1-381): T5 sequence (P49146 1-381)
Experimental: as §1

AChE = details: cited from earlier work
[5] = cited from earlier work
[6] = cAMP production induced by 100 nM human CRF, HEK-293, read-out: IC50 value CRF2
[7] = inhibition of dopamine-induced [35S]GTPγS binding, read-out: IC50 value D2
[8] = inhibition of dopamine-induced [35S]GTPγS binding, read-out: IC50 value D3
[9] = reported value from previous study (*) ref 23

Molecule: CRF: Stress hormone corticotropin-releasing factor (4136-s; Peptide Institute), injected ICV to induce delayed gastric emptying (SEEPPISLDLTFHLLREVLEMARAEQLAQQAHSNRKLMEII; ends and bridges not checked; UniProt P06850 154-194, looked up)
- Gastric emptying rate of solid test meal (2 hours) after CRF (C57BL/6 mice): significantly decreased

Molecule: CCCCC/C=C/C(=O)CCc1ccc(O)c(OC)c1 [6-Shogaol]
- IC50 (human CRF2 receptor; [6]): > 100 µM
- IC50 [1]: > 100 µM
- IC50 [2, 7]: > 100 µM
- IC50 [3, 8]: 11.3 µM
- IC50 (human NPY Y2 receptor): > 100 µM

Molecule: C=CCc1ccc(O)c(-c2ccc(O)c(CC=C)c2)c1 [Honokiol]
- IC50 (human CRF2 receptor): 40 µM
- IC50 [2, 7]: 36.2 µM
- IC50 [3, 8]: 52.7 µM
- IC50 [4]: > 100 µM
- IC50 (AChE; [9]): 57 µM
- Blood-brain barrier passage [5]: capable of traversing the blood-brain barrier

Molecule: CCCCCCCCC[C@H](O)CC(=O)CCc1ccc(O)c(OC)c1 [10-Gingerol]
- IC50 (human CRF2 receptor; [6]): > 100 µM
- IC50 [1]: 25.9 µM
- IC50 [2, 7]: > 100 µM
- IC50 [3, 8]: > 100 µM
- IC50 (human NPY Y2 receptor): > 100 µM

Molecule: O=c1cc(-c2ccc(O)c(O)c2)oc2cc(O)cc(O)c12 [Luteolin]
- IC50 (human CRF2 receptor; [6]): > 100 µM
- IC50 [2]: 48.9 µM
- IC50 [3]: > 100 µM
- IC50 ([4]; inhibition of [35S]GTPγS binding induced by 3 nM human NPY, KAN-TS cells, read-out: IC50 value NPY Y2): 8.39 µM
- IC50 (AChE; reported value from previous study (**) ref 24): 32.5 µM
- Blood-brain barrier passage ([5]; in vivo): capable of crossing blood-brain barrier

Molecule: C=CCc1ccc(O)c(-c2cc(CC=C)ccc2O)c1 [Magnolol]
- IC50 (human CRF2 receptor): 32 µM
- IC50 [2]: 43.1 µM
- IC50 [3]: 50.1 µM
- IC50 [4]: > 100 µM
- IC50 (AChE; [9]): 69 µM
- Blood-brain barrier passage [5]: capable of traversing the blood-brain barrier

Molecule: O=C(/C=C/c1ccc(O)c(O)c1)O[C@H](Cc1ccc(O)c(O)c1)C(=O)O [Rosmarinic acid]
- IC50 (human CRF2 receptor): > 100 µM
- IC50 [1]: > 100 µM
- IC50 [2, 7]: > 100 µM
- IC50 [3, 8]: 0.54 µM
- IC50 [4]: > 100 µM
- Blood-brain barrier permeability [5]: extremely low

Molecule: CCCCCCC/C=C/C(=O)CCc1ccc(O)c(OC)c1 [8-Shogaol]
- IC50 (human CRF2 receptor; [6]): > 100 µM
- IC50 [1]: 18.9 µM
- IC50 [2, 7]: 7.22 µM
- IC50 [3, 8]: 11.2 µM
- IC50 (human NPY Y2 receptor): > 100 µM
- Detection in the brain ([5]; after oral administration of ginger extract ref 34): not detected in the brain
